Measured values from patent US10308938B2, “Compositions and methods to activate or inhibit toll-like receptor signaling” (priority 2014, dated 2019).
Oligonucleotides are written 5' to 3', each unit as a sugar letter and its base; * is a phosphorothioate linkage, no mark a phosphodiester; rarer units and linkages stand in square brackets, end groups in braces. Plain capitals give the bases only. d = 2'-deoxy (DNA)

Key:
CD4^+ T cells [1] = assay: Intracellular calcium measurement (INDO-1AM); format: cell-based, human
Description: Intracellular calcium measurements. Ex vivo isolated CD4^+ T cells were labeled with 5 μM INDO-1AM for one hour at 37° C. in PBS, 1 mM Ca^2+. Cells were washed to remove traces of INDO-1AM, resuspended in buffer at 10^6 cells/ml and incubated for 30 minutes at 37° C. before analysis. When necessary, IRS661 was added at the indicated concentration during the 30 minute incubation. For acquisition, the sample was acquired for approximately 3 minutes to obtain basal levels of calcium and subsequently IMQ or other reagents were added at the indicated concentrations. Samples were acquired for a minimum of 10 minutes on a BD Fortessa instrument and analysed with FlowJo software.

CD4^+ T cells [2] = assay: Anergy-related gene expression, TaqMan real-time PCR; format: cell-based, human; conditions: preincubation with IRS661 before IMQ
Description: (§1) Quantification of mRNA expression levels by RT-PCR. RNA was isolated using QIAGEN RNeasy Micro Plus Kit (QIAGEN, Valencia, Calif.), following manufacturer's guidelines and converted to cDNA by reverse transcription (RT) with random hexamers and Multiscribe RT (TQMN, Reverse Transcription Reagents; Applied Biosystems, Foster City, Calif.). For mRNA gene expression assays, probes were purchased from Applied Biosystems (Table 2) and the reactions were set up following manufacturer's guidelines and run on a StepOne Real-Time PCR System (Applied Biosystems). Values are represented as the difference in Ct values normalized to β2-microglobulin for each sample as per the following formula: Relative RNA expression=(2^−dCt)×1000.
To examine whether TLR7 stimulation and subsequent NFAT dephosphorylation induces the expression of anergy-related genes, CD4^+ T cells were incubated for 2-16 hours with IMQ in the presence or absence of the TLR7 inhibitory sequence IRS661 and RNA was isolated to examine the hypothesis that TLR7 engagement induced expression of anergy-related genes previously described. As a control for anergy-related gene expression, CD4^+ T cells were incubated with either ionomycin and PMA or ionomycin alone. […] The effect observed in the regulation of these genes was TLR7-specific, as preincubation of CD4^+ T cells with IRS661 before IMQ treatment abrogated the increase in anergy-related gene expression.

memory T cells = assay: IMQ pretreatment, washout, rest and restimulation with anti-CD3 and anti-CD28; format: cell-based, human; conditions: IRS661 pretreated cells
Description: (§2) Enzyme-linked immunosorbent assay.
To determine if pretreatment of CD4^+ T cells with IMQ would be sufficient to diminish their subsequent cytokine secretion and proliferative response to a full stimulation, memory T cells were pre-treated with IMQ for 2 hours and rested for 12 hours after washout to remove traces of IMQ and then stimulated with anti-CD3 and anti-CD28 for 3 days.

HIV-1^+CD4^+ T cells = assay: Anergy-related gene expression in in vitro HIV-1-infected CD4+ T cells; format: cell-based, human; conditions: day seven after infection
Description: as §1
To confirm this observation, the expression of anergy-related genes in in vitro HIV-1-infected CD4^+ T cells from five healthy donors in the presence of IRS661 (to inhibit TLR7) or a control sequence at day seven after infection was examined (FIG. 40).

HIV-1 (NL-432) = assay: HIV-1 infection of humanized MISTRG mice, viral load; format: in vivo, mouse; conditions: 20 μM IRS661 at day 0 or day 14 after infection
Description: Mouse experiments. MISTRG mice (Nature Biotechnology 2014; 32; 364-372) were infected with HIV-1 (50 ng p24) at day 0 in the presence of 20 μM IRS661 or control sequence (at either day 0 or day 14). Serum was obtained at different time points and RNA was isolated by Direct-zol RNA MiniPrep kit (Zymo Research). Viral load was measured by Gag amplification by Real Time PCR
In order to test the role of TLR7 inhibition in HIV-1 infection in vivo, a humanized mouse model (Rongvaux et al., Nat. Biotech., 32:364-372 (2014)) was used. Three groups of mice were infected with HIV-1 (NL-432): one control group, another group that was injected with IRS661 at the same time of HIV-1 infection (day 0), and a third group where IRS661 was injected at the peak of infection (day 14 after HIV-1 infection). […] For those mice that were injected with IRS661 at day 14 after infection (FIG. 55, white dots), viral load was measured at day 21 after infection. One mouse from the control group (black dots) died at day 17.

HIV-1 [3] = conditions: supernatants every three days, 14 days
Description: CD4^+ T cells isolated from HIV-1 infected patients (Table 3) were stimulated in the presence of IRS661 (FIG. 50) or were transduced with two TLR7-specific shRNA (FIG. 51) with supernatant collections every three days for a total of 14 days to measure virus concentration by p24 ELISA.

HIV-1 [4] = conditions: day seven; compared to control cells
Description: Furthermore, proviral integrated DNA load was measured at day seven after stimulation in the presence of IRS661 or a control sequence (FIG. 52) and after transduction with TLR7-specific shRNA (FIG. 53) to monitor the cellular viral reservoir.

CD4^+ T cells [5] = assay: Proliferation of CFSE-labeled CD4+ T cells stimulated with anti-CD3 and anti-CD28 in the presence of TLR ligands; format: cell-based, human; conditions: for proliferation of CD4+ T cells (frequency of proliferating cells): compared to control; for inhibition of proliferation, level relative to IMQ: three days
Description: Cell isolation and FACS sorting of T cell populations. Peripheral blood mononuclear cells (PBMC) were isolated from healthy donors by Ficoll Hypaque gradient centrifugation. Total CD4^+ T cells were isolated by negative selection using CD4^+ T cell isolation kit (StemCell Technologies, Vancouver, BC) and stained for fluorescence-activated cell sorting (FACS) with the following antibodies: anti-CD45RO (clone UCHL1), CD45RA (clone H1100), CD25 (clone M-A251) (all from BD Biosciences) and CD127 (clone eBioRDR5) from eBioscience (San Diego, Calif.). The Treg (CD4^+CD25^hiCD127^low/neg) memory T cell (CD4^+CD45RA^−CD45RO^+CD25^low/neg+) and naïve T cell (CD4^+CD45RA^+CD45RO^−CD25^low/neg) populations were sorted on a FACS Aria (BD Biosciences). Unless specified, CD4^+ T cells used in the experiments were Treg-depleted CD4^+ T cells and they were sorted as CD4^+CD25^pos/lowCD127^+. The purity of the sorted CD4^+ T cell population was >98% as assessed by CD3 and CD4 staining after sort. CD14^+ cells were isolated by positive selection using EasySep™ Human CD14 Positive Selection Kit (StemCell Technologies).
(§3) Cell activation and intracellular staining.
While examining the costimulatory role of TLR on CD4^+ T cells, it was unexpectedly discovered that entry of CD4^+ cells into cell cycle with T cell receptor cross-linking and anti-CD28 was blocked by TLR7 engagement. Specifically, CD4^+ T cells were stimulated with anti-CD3 and anti-CD28 in the presence of different TLR agonists followed by analysis of proliferation and cytokine secretion.

CD4^+ T cells [6] = assay: Cytokine secretion by stimulated CD4+ T cells, ELISA; format: cell-based, human; conditions: day 3 after stimulation
Description: as §3, §2

HIV-1NL-D = assay: HIV-1 in vitro infection of CD4+ T cells; format: cell-based; conditions: for frequency of HIV-1-infected CD4+ T cells: treatment before infection, MOI 0.001
Description: Preparation of HIV-1 virus stocks. HIV-1 proviral DsRed-tagged DNA pNL-D (derived from the prototype HIV-1 proviral DNA pNL432) was kindly provided by Dr. Yasuko Tsunetsugu-Yokota. 293T cells were used to prepare viral stocks following published protocols with minor modifications. In brief, 293T cells were plated at 0.5×10^6/well in 12-well plates and transfected with 2 μg pNL-D using Lipofectamine 2000 (Invitrogen) for 48 hours. Culture supernatant was treated with benzonase (1U/ml) for 30 minutes at 37 C, cleared by filtration and titrated on 293T cells. Stocks were stored at −80 C.
HIV-1 in vitro infection. CD4^+ T cells were stimulated with anti-CD3 (1 μg/ml) and anti-CD28 (1 μg/ml) for 48 hours and subsequently infected with HIV-1 at a MOI of 0.001 (concentration within the physiological range). Viability and cytokine secretion was measured every 48 hours for a total of 11 days after infection.
For HIV-1 infection on TLR7-deficient cells, CD4^+ T cells were stimulated as above and transduced with the corresponding lentiviral particles. 48 hours after transduction, the cells were infected with HIV-1NL-D at a MOI of 0.001. Viability and frequency of HIV-1-infected cells were measured at different time points by LIVE/DEAD cell dye staining and fixation with 1% PFA (to avoid DsRed signal loss). For intracellular staining after infection, the cells were restimulated with PMA and Ionomycin in the presence of GolgiStop for 4 hours and the staining was performed as recommended by Grupillo et al.

## 5′-TGCTTGCAAGCTTGCAAGCA-3′ (DNA dT*dG*dC*dT*dT*dG*dC*dA*dA*dG*dC*dT*dT*dG*dC*dA*dA*dG*dC*dA) [IRS661]
CD4^+ T cells [1]; pre-incubation with IRS661
  increase in calcium concentration upon IMQ stimulation: impaired
CD4^+ T cells [2]
  IMQ-induced increase in anergy-related gene expression: abrogated
Memory T cells
  IMQ-induced decrease of IFNγ production: not observed
  IMQ-induced decrease of IL-2 production: not observed
HIV-1^+CD4^+ T cells
  expression of 12 anergy-related genes in HIV-1+CD4+ T cells: did not upregulate any of these genes
HIV-1 (NL-432)
  HIV-1 viral load: decreases
HIV-1 [3]
  concentration of p24 in culture: strongly decreased
HIV-1 [4]
  proviral DNA load: dramatic decrease

## CCCCNc1nc(N)c2[nH]c(=O)n(Cc3ccc(C(=O)NCC(=O)O)cc3)c2n1 [CL264]
CD4^+ T cells [5]
  proliferation of CD4+ T cells (frequency of proliferating cells): significant decrease
CD4^+ T cells [6]
  IFNγ secretion: inhibited
  IL-2 secretion: inhibited
  IL-4 secretion: inhibited
  IL-17 secretion: inhibited

## CCNCc1nc2c(N)nc3ccccc3c2n1CC(C)(C)O [Gardiquimod]
CD4^+ T cells [5]
  proliferation of CD4+ T cells (frequency of proliferating cells): significant decrease
  inhibition of proliferation, level relative to IMQ: comparable to IMQ treatment
CD4^+ T cells [6]
  IFNγ secretion: inhibited
  IL-2 secretion: inhibited
  IL-4 secretion: inhibited
  IL-17 secretion: inhibited

## C=CCn1c(=O)n([C@@H]2O[C@H](CO)[C@@H](O)[C@H]2O)c2nc(N)[nH]c(=O)c21 [Loxoribine]
CD4^+ T cells [5]
  proliferation of CD4+ T cells (frequency of proliferating cells): significant decrease
  inhibition of proliferation, level relative to IMQ: comparable to IMQ treatment
CD4^+ T cells [6]
  IFNγ secretion: inhibited
  IL-2 secretion: inhibited
  IL-4 secretion: inhibited
  IL-17 secretion: inhibited

## COc1cc(N(CC(=O)OCOC(C)=O)CC(=O)OCOC(C)=O)c2nc(COc3cc(C)ccc3N(CC(=O)OCOC(C)=O)CC(=O)OCOC(C)=O)ccc2c1 [Quin-2 AM]
HIV-1NL-D
  frequency of viable cells: significantly decreased
  frequency of HIV-1-infected CD4+ T cells: marked decrease

## C[C@H](CCC(=O)O)C[C@H](C)C[C@H](C)C(=O)/C=C(\O)[C@H](C)C[C@H](C)C/C=C/[C@@H](C)[C@@H](O)[C@@H](C)[C@@H](O)C[C@@H]1CC[C@@](C)([C@H]2CC[C@@](C)([C@@H](C)O)O2)O1 [ionomycin]
HIV-1NL-D
  frequency of HIV-1-infected CD4+ T cells: increased

## Poly(I:C)
CD4^+ T cells [1]; INDO-1AM ratio over time
  intracellular calcium concentration: not observed
